Consider twelve molecules from patent publication US6147097A, “Imidazole derivatives as anti-HIV agents” (Shionogi & Co., Ltd., priority 1994, dated 2000).

Data set [1] has as its system HIV (HTLV-IIIB strain). Kind of data set: microbe, parasite or virus in culture. It is filed as cell-based. Particulars: Human immunodeficiency virus 1, IIIB, MT4, 120 h. Summed up: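 Protection from virus was read as viable-cell MTT conversion to formazan after 5 days at 37° C. The cultures contained MT-4 cells (3.5×10^4/well), compound dilutions and 60 pfu HIV per well.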

Data set [2] can be described thus: cytotoxicity in MT-4 cells (MTT, culture medium in place of HIV). It is filed as cell-based. Conditions: human. Summed up: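 Uninfected readout: compound-treated MT-4 cultures, 3.5×10^4 cells/well, received medium in place of virus and were kept 5 days at 37° C. Viability measured by 1 h MTT reduction, solubilized formazan read at 560/690 nm relative to control wells.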

Data set [3] has as its target T1, purified recombinant HIV-1 reverse transcriptase (Human immunodeficiency virus type 1 group M subtype B, UniProt P04585).
T1 construct: purified recombinant HIV-1 reverse transcriptase; made in house; host or cells: Escherichia coli
Kind of data set: reverse transcriptase inhibition, poly(rA)/(dT) template primer, [3H]dTTP uptake. The class given is biochemical. Summed up:
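Inhibition reported as percent reduction of [3H]dTTP incorporation relative to solvent control, after 1 h at 37 °C at pH 8.3. Recombinant RT from E. coli, poly(rA) template with oligo(dT) primer, 4 μM unlabeled dTTP as substrate; product collected on DEAE filter mats.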

Setting [4] is: MT-4 cells, 60 pfu HIV per well, 37° C., 5 days, MTT, Tables 1 and 2, read-out: EC50.
The mark [5] stands for this setting: MT-4 cells, no virus, 37° C., 5 days, MTT, Table 3, read-out: CC50.

A word on the EC50: it is the concentration giving half of the maximal effect. In general, CC50 refers to the concentration giving 50% cytotoxicity. The term IC50 denotes the concentration that inhibits the measured activity by half.

The structures appear in SMILES notation. Converted amounts (≈) assume the structure as drawn. Like-named read-outs stand apart in the source and are kept apart here.

Turning to `CC(C)c1nc(CO)n(CC(F)(F)F)c1Sc1cc(Cl)cc(Cl)c1` [Compound I-33, 2-[5-(3,5-dichlorophenylthio)-4-isopropyl-1-(1,1,1-trifluoroethyl)-1H-imidazol-2-yl]methanol], in data set [1] (setting [4]), the EC50 was determined as 0.016 µg/mL (≈ 0.0401 µM). Further, the CC50 at 120 h in data set [2] (setting [5]) was 10 to 100 µg/mL (≈ 25 to 250 µM). Moreover, the IC50 in data set [3] is 9.77 µM.

As for `CC(C)c1nc(CO)n(CF)c1Sc1cc(Cl)cc(Cl)c1` [Compound I-34, [1-fluoromethyl-5-(3,5-dichlorophenylthio)-4-isopropyl-1H-imidazol-2-yl]methanol], the EC50 in data set [1] (setting [4]) amounted to 0.006 µg/mL (≈ 0.0172 µM). In data set [2] (mt-4 cells), this molecule returned a CC50 at 120 h of 13.5 µg/mL (≈ 38.7 µM). For the same molecule, in data set [3], the IC50 was 4.01 µM.

In turn, `CCn1c(CO)nc(C(C)C)c1Sc1cc(F)cc(F)c1` [Compound I-36, [5-(3,5-difluorophenylthio)-1-ethyl-4-isopropyl-1H-imidazol-2-yl]methanol] returned a concentration for a half-maximal effect (EC50) in data set [1] of 0.002 µg/mL (≈ 0.0064 µM). The CC50 at 120 h in data set [2] (setting [5]) fell in the range of 10 to 100 µg/mL (≈ 32 to 320 µM). The half-maximal inhibitory concentration (IC50) in data set [3] is 0.576 µM.

Take `CCn1c(CO)nc(C(C)C)c1Sc1cccc(F)c1` [Compound I-37, [1-ethyl-5-(3-fluorophenylthio)-4-isopropyl-1H-imidazol-2-yl]methanol]: in data set [1] (setting [4]), the concentration for a half-maximal effect (EC50) worked out at 0.0005 µg/mL (≈ 0.0017 µM). Moreover, in data set [2] (setting [5]), the CC50 at 120 h is 25 µg/mL (≈ 84.9 µM). Moreover, the IC50 in data set [3] was 0.204 µM.

`CC(C)c1c(Sc2cccc(Cl)c2)nc(CO)n1C` [Compound I-38, [4-(3-chlorophenylthio)-5-isopropyl-1-methyl-1H-imidazol-2-yl]methanol]: the EC50 in data set [1] (setting [4]) stood at 6.3 µg/mL (≈ 21.2 µM). In addition, in data set [2] (setting [5]), the CC50 at 120 h was in the range of 12.5 to 25 µg/mL (≈ 42.1 to 84.2 µM). The half-maximal inhibitory concentration (IC50) in data set [3] was 273 µM.

As for `CC(C)c1c(Sc2cc(Cl)cc(Cl)c2)nc(CO)n1C` [Compound I-39, [4-(3,5-dichlorophenylthio)-5-isopropyl-1-methyl-1H-imidazol-2-yl]methanol], the EC50 in data set [1] (setting [4]) fell in the range of 1 to 10 µg/mL (≈ 3.02 to 30.2 µM). Also, in data set [2] (setting [5]), the 50% cytotoxic concentration (CC50) at 120 h was in the range of 10 to 100 µg/mL (≈ 30.2 to 302 µM). The concentration for half-maximal inhibition (IC50) in data set [3] is 198 µM.

For the molecule `CC(=O)OCc1nc(C(C)C)c(Sc2cc(Cl)cc(Cl)c2)n1C` [Compound I-40, [5-(3,5-dichlorophenylthio)-4-isopropyl-1-methyl-1H-imidazol-2-yl]methyl acetate], the concentration for a half-maximal effect (EC50) in data set [1] (setting [4]) came to 0.016 µg/mL. The CC50 at 120 h in data set [2] (setting [5]) lay within 12.5 to 25 µg/mL. The concentration for half-maximal inhibition (IC50) in data set [3] was 28.7 µM.

For `CC(C)c1nc(COC(N)=O)n(C)c1Sc1cc(Cl)cc(Cl)c1` [Compound I-41, 2-carbamoyloxymethyl-5-(3,5-dichlorophenylthio)-4-isopropyl-1-methyl-1H-imidazole], a half-maximal effect in data set [1] (EC50) was put at 0.016 µg/mL (≈ 0.0427 µM). Moreover, in data set [2] (mt-4 cells), the midpoint of cytotoxicity, the CC50 at 120 h, lay at 8.5 µg/mL (≈ 22.7 µM). In addition, the half-maximal inhibitory concentration (IC50) in data set [3] was 1.34 µM.

Turning to `CC(C)c1nc(COC(N)=O)n(C)c1Sc1cccc(Cl)c1` [Compound I-42, 2-carbamoyloxymethyl-5-(3-chlorophenylthio)-4-isopropyl-1-methyl-1H-imidazole], it took 0.07 µg/mL (≈ 0.206 µM) to reach a half-maximal effect in data set [1] (EC50). This molecule gave a 50% cytotoxic concentration (CC50) at 120 h in data set [2] (mt-4 cells) of 8 µg/mL (≈ 23.5 µM). The concentration for half-maximal inhibition (IC50) in data set [3] is 5 µM.

Regarding `CNC(=O)OCc1nc(C(C)C)c(Sc2cc(Cl)cc(Cl)c2)n1C` [Compound I-43, 5-(3,5-dichlorophenylthio)-4-isopropyl-1-methyl-2-(N-methylcarbamoyl)oxymethyl-1H-imidazole], the 50% effective concentration (EC50) in data set [1] (setting [4]) amounted to 0.25 µg/mL (≈ 0.644 µM). Besides, the CC50 at 120 h in data set [2] (setting [5]) fell in the range of 1 to 10 µg/mL (≈ 2.58 to 25.8 µM). In data set [3], the IC50 was 13.6 µM.

Take `CNC(=S)OCc1nc(C(C)C)c(Sc2cc(Cl)cc(Cl)c2)n1C` [Compound I-44, 5-(3,5-dichlorophenylthio)-4-isopropyl-1-methyl-2-(N-methylthiocarbamoyl)oxymethyl-1H-imidazole]: the concentration giving a half-maximal response (EC50) in data set [1] (setting [4]) was determined as 1 µg/mL (≈ 2.47 µM). The cytotoxic concentration (CC50) at 120 h in data set [2] (setting [5]) lay within 1 to 10 µg/mL (≈ 2.47 to 24.7 µM). Further, the concentration for half-maximal inhibition (IC50) in data set [3] is 107 µM.

In turn, `CC(C)c1nc(COC(N)=O)n(Cc2ccccc2)c1Sc1cc(Cl)cc(Cl)c1` [Compound I-45, 1-benzyl-2-carbamoyloxymethyl-5-(3,5-dichlorophenylthio)-4-isopropyl-1H-imidazole] returned an EC50 in data set [1] of 0.004 to 0.008 µg/mL (≈ 0.00888 to 0.0178 µM). The cytotoxic concentration (CC50) at 120 h in data set [2] (setting [5]) came to 12.5 µg/mL (≈ 27.8 µM). The IC50 in data set [3] was 1.44 µM.
